How the values were obtained:
solid tumours = details: clinical efficacy, limited by dose-limiting toxicity; cited from earlier work
[1] = system: cytidine deaminase (CDA) activity in HT-29 cells; test: cytidine deaminase activity in extracts of treated HT-29 cells; format: cell-based, human; details: 10^-7 M; for increase in cytidine deaminase activity: incubation at day 1 for 24 hours, versus isopropanol control
Method: (§1) HT-29 cells (a human colon cancer cell line) were grown in medium to which was added 0.0025% isopropanol as control, 10^−7 M 1α, 25-dihydroxyvitamin D3 or 10^−7 M seocalcitol, respectively. The medium was changed on days 1, 4, 6, 8, 11 and 13, each time with addition of isopropanol, 1α, 25-dihydroxyvitamin D3 or seocalcitol, as appropriate.
(§2) On each of the indicated days, cells from each culture were harvested, pelleted and frozen. For the cytidine deaminase and thymidine phosphorylase assays, the frozen cell pellet was thawed and resuspended in 150 μl of 0.1 M Tris-Hcl, pH 8.1. The cell suspension was sonicated for 2-5 seconds and centrifuged at 20000×g for 20 minutes at 4° C. 100 μl of cell extract was transferred to Eppendorf tubes containing 0.5 μl 1M DTT.
(§3) The cytidine deaminase activity in the cell extracts was determined by measuring the conversion of radiolabelled cytidine to […] and uracil. The assay is a combination of the methods described in J. Mejer and P. Nygaard, “Cytosine Arabinoside Phosphorylation and Deamination in Acute Myeloblastic Leukemia Cells”, Leukemia Research 2, 1978 pp. 127-131, and B. R. De Saint Vincent et al., “The Modulation of Thymidine Triphosphate Pool of Chinese Hamster Cells by dCMP Deaminase and UDP Reductase”, J. Biol. Chem. 255, 1980, pp. 162-167, which are hereby incorporated by reference.
The assay mixture has a total volume of 50 μl and the following composition:
2 μl ^3H-cytidine (18.2 Ci/mmol, 1 mCi/ml)
The substrate and products were separated on PEI-cellulose plates placed in about 1.5 cm of a mixture of isopropanol:water:ethyl acetate 41:22:117.

[2] = system: thymidine phosphorylase (TP) activity in HT-29 cells; test: thymidine phosphorylase activity in extracts of treated HT-29 cells; format: cell-based, human; details: 10^-7 M; for thymidine phosphorylase activity: at day 11 (control 0.395±0.062); for thymidine phosphorylase activity compared to isopropanol-treated cells: first 5 days
Method: as §1, §2
(§4) The thymidine phosphorylase activity was determined by measuring the conversion of radiolabelled thymidine to thymine. The assay method used was a slight modification of the method described in T. Sumizawa et al., “Thymidine Phosphorylase Activity Associated with Platelet-Derived Endothelial Cell Growth Factor”, J. Biochem. 114, 1993, pp. 9-14, which is hereby incorporated by reference.
10 μl 50 mM sodium phosphate, pH 7.0
10 μl mM Tris-HCl, pH 7.6
2 μl ^3H-thymidine (5 Ci/mmol, 1 mCi/ml)
The substrate and product were separated on PEI-cellulose plates placed in about 1.5 cm of water.

FHC cells = test: growth of FHC cells; format: cell-based; details: normal human colon epithelial cells, 10^-7 M, 14 days
Method: (§5) The effect of administration of 1α, 25-dihydroxyvitamin D3 or seocalcitol (EB 1089) on growth of FHC cells was investigated. FHC cells are normal human colon epithelial cells (ATCC CRL-1831) considered to be a good model of normal human colon epithelium. The cells were grown in a culture medium supplemented with 10^−7 M 1α,25-dihydroxyvitamin D3 or seocalcitol for 14 days.

[3] = system: cytidine deaminase activity in FHC cells; test: cytidine deaminase activity in FHC cells; format: cell-based, human; details: continuous exposure, period of 11 days, control 0.07±0.03 nmol/min/mg
Method: as §3, §5
Similarly, cytidine deaminase and thymidine phosphorylase activity in FHC cells following continuous exposure to 1α,25-dihydroxyvitamin D3 or seocalcitol was determined as described in example 1. […]

[4] = system: thymidine phosphorylase activity in FHC cells; test: thymidine phosphorylase activity in FHC cells; format: cell-based, human; details: continuous exposure, period of 11 days, control 0.25±0.04 nmol/min/mg
Method: as §4, §5
Similarly, cytidine deaminase and thymidine phosphorylase activity in FHC cells following continuous exposure to 1α,25-dihydroxyvitamin D3 or seocalcitol was determined as described in example 1. The cytidine deaminase and thymidine phosphorylase activity in control cells remained constant at 0.07±0.03 and 0.25±0.04 nmol/min/mg, respectively, over a period of 11 days and was unaffected by the presence of 1α,25-dihydroxyvitamin D3 or seocalcitol.

[5] = system: cell growth and enzymatic activity; test: 2 hours versus continuous exposure (previous experiment); format: cell-based; details: 10^-7 M
[6] = system: estrogen receptor-negative MDA-MB-231 tumours; details: in combination with doxifluridine, MDA-MB-231 tumours in athymic mice; cited from earlier work
[7] = system: cytidine deaminase in HL60 cells; details: human promyeolytic cell line HL60; cited from earlier work
cytidine deaminase gene = details: HL60, WiDr, Colo 201, Colo 205, CXF 280, DLD-1, MKN 45, MKN 1, MKN 28 and A549 cells; cited from earlier work
[8] = after 8 days of incubation, p<0.0001

Row | SMILES | overall response rate (solid tumours) | increase in cytidine deaminase activity relative to that observed for 1α,25-dihydroxyvitamin D3 [1, 8] | increase in cytidine deaminase activity [1] [fold] | thymidine phosphorylase activity [2] [nmol/min/mg] | thymidine phosphorylase activity compared to isopropanol-treated cells [2] | growth of FHC cells compared to untreated control cells (FHC cells) | cytidine deaminase activity in FHC cells [3] | thymidine phosphorylase activity in FHC cells [4] | effect on cell growth and enzymatic activity of 2 hours of exposure versus continuous exposure [5] | effect of combination treatment versus 22-oxacalcitriol alone [6] | maximum increase in cytidine deaminase activity [1, 8] [fold] | cytidine deaminase in HL60 cells [7] | expression of the cytidine deaminase gene (cytidine deaminase gene)
1 | O=c1[nH]cc(F)c(=O)[nH]1 [5-FU, 5-fluorouracil] | 10-30% |  |  |  |  |  |  |  |  |  |  |  | 
2 | C=C1/C(=C\C=C2/CCC[C@]3(C)[C@@H]([C@H](C)/C=C/C=C/C(O)(CC)CC)CC[C@@H]23)C[C@@H](O)C[C@@H]1O [seocalcitol] |  | twice | 4.9 | 0.672 | the same as in isopropanol-treated cells | not significantly affected | unaffected | unaffected | equivalent effect |  |  |  | 
3 | C=C1/C(=C\C=C2/CCC[C@]3(C)[C@@H]([C@H](C)OCCC(C)(C)O)CC[C@@H]23)C[C@@H](O)C[C@@H]1O [22-oxacalcitriol] |  |  |  |  |  |  |  |  |  | did not exceed that of treatment with 22-oxacalcitriol alone |  |  | 
4 | C=C1/C(=C\C=C2/CCC[C@]3(C)[C@@H]([C@H](C)CCCC(C)(C)O)CC[C@@H]23)C[C@@H](O)C[C@@H]1O [1α,25-dihydroxyvitamin D3] |  |  | 4.5 | 0.323 | the same as in isopropanol-treated cells | not significantly affected | unaffected | unaffected |  |  | 15.5 | causes an increase | upregulates
